Twelve compounds from patent US10144715B2, “Piperazine derivatives as liver X receptor modulators” (priority 2014, dated 2018) can be followed below.

Molecules are shown by their SMILES. Read-outs that look alike come from different tables or passages of the source.

The target in assay [1] is LXR α LBD protein (Homo sapiens (Human), UniProt Q13133). Description: LXR α radioligand binding assay (SPA, competition with [3H]TO901317). As to conditions: read-out: LXRα Binding Ki.
In assay [2] the target is LXR β LBD protein (Homo sapiens (Human), UniProt P55055). Description: biochemical. Type of assay: binding. The note with it: read-out: LXRβ Binding Ki.
Assay [3] deals with T1, Gal4 DNA binding domain fused to the LBD of LXRα in HEK293 cells (Homo sapiens (Human), UniProt Q13133). The experiment in a line: LXR luciferase transcriptional reporter gene assay, agonist mode, LXRα. Type of assay: cell-based. The note with it: for EC50: read-out: Cell LXRα EC50.
Assay [4] concerns the target T2, Gal4 DNA binding domain fused to the LBD of LXRβ in HEK293 cells (Homo sapiens (Human), UniProt P55055). Description: cell-based.
Assay [5] deals with T1, Gal4 DNA binding domain fused to the LBD of LXRα in HEK293 cells. Description: LXR luciferase transcriptional reporter gene assay, antagonist mode (200 nM T0901317), LXRα. In kind it is cell-based. The note with it: for IC50: read-out: Cell LXRα IC50. On the technique in general: In a reporter assay the amount or activity of a reporter protein is the signal.
For assay [6], the target named is T2, Gal4 DNA binding domain fused to the LBD of LXRβ in HEK293 cells. The experiment in a line: cell-based. Type of assay: cell-based.
Where [7] appears, read: agonist mode, read-out: Cell LXRβ EC50.
Setting [8] is: antagonist mode, 200 nM T0901317, HEK293 reporter gene assay.
Setting [9] is: antagonist mode, 200 nM T0901317, HEK293 reporter gene assay, read-out: Cell LXRβ IC50.
Setting [10] is: Biological Test Example 2, agonist mode.
The mark [11] stands for this setting: Biological Test Example 2, agonist mode, read-out: Cell LXRβ EC50.

LXR α LBD protein, sequence (Q13133 209-447): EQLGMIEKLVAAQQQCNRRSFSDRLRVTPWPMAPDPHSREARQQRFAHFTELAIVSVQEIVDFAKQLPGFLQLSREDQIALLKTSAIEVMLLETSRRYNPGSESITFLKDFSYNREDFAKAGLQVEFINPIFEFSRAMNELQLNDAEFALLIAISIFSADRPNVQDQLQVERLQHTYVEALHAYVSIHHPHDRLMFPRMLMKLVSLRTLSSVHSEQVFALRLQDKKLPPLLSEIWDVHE
T1 sequence (Q13133 209-447): as above
T2 sequence (P55055 222-460 limits assumed): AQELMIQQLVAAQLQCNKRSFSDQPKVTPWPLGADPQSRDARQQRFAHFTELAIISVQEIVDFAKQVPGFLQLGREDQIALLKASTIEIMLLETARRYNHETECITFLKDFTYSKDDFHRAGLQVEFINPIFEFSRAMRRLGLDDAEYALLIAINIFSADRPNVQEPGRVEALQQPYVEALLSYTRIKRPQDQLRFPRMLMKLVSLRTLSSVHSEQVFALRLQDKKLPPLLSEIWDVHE
LXR β LBD protein, sequence (P55055 222-460 limits assumed): as above

The Ki is a measure of affinity in units of concentration, obtained from inhibition or displacement. Usually EC50 stands for the concentration needed to bring the measured effect to its halfway point. In general, IC50 refers to the midpoint of a concentration-inhibition curve. Consider `CC(O)c1cnc(N2CCN(c3ccc(F)c(S(C)(=O)=O)c3)C[C@H]2C(C)C)nc1C(F)(F)F` (mixture of isomers) [Cpd No 12-1, 1-(2-((R)-4-(4-fluoro-3-(methylsulfonyl)phenyl)-2-isopropylpiperazin-1-yl)-4-(trifluoromethyl)pyrimidin-5-yl)ethan-1-ol], for which the inhibition constant (Ki) in assay [1] came to 230 nM; in assay [2], 23 nM. Besides, the entries for the “Cell LXRα efficacy” value in assay [3] and in assay [5] were 969 (46) % and 8047 (105) %, respectively. For the same compound, the EC50 worked out at 969 nM in assay [3] and 154 nM in assay [4]. In addition, the “Cell LXRβ efficacy” value in assay [4] (agonist mode) is 154 (37) %. For the same compound, the half-inhibitory concentration (IC50) in assay [5] worked out at 8050 nM; in assay [6] it was 252 nM.

As for `CS(=O)(=O)c1cccc(N2CCN(C[C@H]3CC[C@@](C)(O)CC3)[C@@H](c3ccccc3)C2)c1` (single isomer, unassigned) [48-5], the Ki stood at 1270 nM in assay [1] and 123 nM in assay [2]. The EC50 in assay [3] and in assay [4] (setting [7]) was above 20000 nM each time. The “Cell LXRα efficacy” value in assay [5] is 1169 (61) %. Moreover, the half-maximal inhibitory concentration (IC50) in assay [5] is 1170 nM; in assay [6] (setting [9]) it was 118 nM. The “Cell LXRβ efficacy” value in assay [6] (setting [8]) is 93%.

Consider `NS(=O)(=O)c1cccc(N2CCN(C[C@H]3CC[C@@H](C(F)F)CC3)[C@@H](c3ccccc3)C2)c1` (single isomer, unassigned) [48-23], for which the Ki was determined as 94 nM in assay [1] and 11 nM in assay [2]. The results for the “Cell LXRα efficacy” value in assay [3] and in assay [5] were 319 (43) % and 4955 (123) %, respectively. Further, the EC50 in assay [3] stood at 319 nM; in assay [4] (setting [7]), 97 nM. Besides, the results for the “Cell LXRβ efficacy” value in assay [4] (agonist mode) and in assay [6] (setting [8]) were 14% and 91%, respectively. Moreover, the IC50 in assay [5] was 4960 nM; in assay [6] (setting [9]), 408 nM.

With `CS(=O)(=O)c1cccc(N2CCN(C[C@@H]3C[C@@H]4[C@H](C3)C4(F)F)[C@@H](c3ccccc3)C2)c1` (single isomer, unassigned) [48-66], the values for the inhibition constant Ki in assay [1] and in assay [2] (Biological Test Example 1) were 804 nM and 103 nM, respectively. The figures for the “Cell LXRα efficacy” value in assay [3] and in assay [5] were 2518 (40) % and 7360 (100) %, respectively. Further, the EC50 in assay [3] was 2520 nM; in assay [4] (setting [11]), 716 nM. For the same compound, the “Cell LXRβ efficacy” value in assay [4] (setting [10]) came out at 20%; in assay [6] (setting [8]), 81%. In addition, the IC50 in assay [5] turned out to be 7360 nM; in assay [6] (setting [9]) it was 824 nM.

As for `CS(=O)(=O)c1cccc(N2CCN(C[C@H]3CC[C@]4(CC3)CC4(F)F)[C@@H](c3ccccc3)C2)c1` (single isomer, unassigned) [48-71], the Ki in assay [1] amounted to 50 nM; in assay [2] (Biological Test Example 1), 10 nM. Moreover, the “Cell LXRα efficacy” value in assay [3] was 236 (57) %. For the same compound, the half-maximal effective concentration (EC50) in assay [3] worked out at 236 nM; in assay [4] (setting [11]), 75 nM. For the same compound, the “Cell LXRβ efficacy” value in assay [4] (setting [10]) was determined as 25%; in assay [6] (setting [8]), 54%. In addition, the half-maximal inhibitory concentration (IC50) was above 10000 nM in assay [5] and 163 nM in assay [6] (setting [9]).

Regarding `CC[C@@H](O)c1cnc(N2CCN(c3ccc(F)c(S(C)(=O)=O)c3)C[C@H]2C(C)C)nc1C(F)(F)F` (single isomer, unassigned) [Cpd No 12-7], the results for the inhibition constant (Ki) in assay [1] and in assay [2] were 82 nM and 9 nM, respectively. Moreover, the “Cell LXRα efficacy” value in assay [3] was 862 (25) %. Further, the 50% effective concentration (EC50) in assay [3] (agonist mode) stood at 862 nM; in assay [4] it was 49 nM. Moreover, the “Cell LXRβ efficacy” value is 49 (15) % in assay [4] (agonist mode) and 104 (87) % in assay [6] (setting [8]). Moreover, the half-inhibitory concentration (IC50) in assay [5] (setting [8]) stood at 686 nM; in assay [6], 104 nM.

With `CNS(=O)(=O)c1cc(N2CCN(c3ncc(C(C)(C)O)c(C(F)(F)F)n3)[C@H](C(C)C)C2)ccc1F` [10-3, (R)-2-fluoro-5-(4-(5-(2-hydroxypropan-2-yl)-4-(trifluoromethyl)pyrimidin-2-yl)-3-isopropylpiperazin-1-yl)-N-methylbenzenesulfonamide], the inhibition constant (Ki) is 135 nM in assay [1] and 5 nM in assay [2]. The “Cell LXRα efficacy” value in assay [3] is recorded as 646 (35) %; in assay [5], 2003 (83) %. The results for the concentration giving a half-maximal response (EC50) in assay [3] (agonist mode) and in assay [4] were 646 nM and 69 nM, respectively. For the same compound, in assay [4] (agonist mode), the “Cell LXRβ efficacy” value is given as 69 (24) %. The IC50 in assay [5] (setting [8]) is 2000 nM; in assay [6], 242 nM.

Consider `CC(C)[C@@H]1CN(c2ccc(F)c(S(C)(=O)=O)c2)CCN1c1ncc(CN(C)C(C)(C)C)c(C(F)(F)F)n1` [15-6, (R)-N-((2-(4-(4-fluoro-3-(methylsulfonyl)phenyl)-2-isopropylpiperazin-1-yl)-4-(trifluoromethyl)pyrimidin-5-yl)methyl)-N,2-dimethylpropan-2-amine], for which the inhibition constant Ki in assay [1] was above 3330 nM; in assay [2], 360 nM. The EC50 in assay [3] (agonist mode) and in assay [4] was above 20000 nM throughout. In addition, the “Cell LXRα efficacy” value in assay [5] was 6215 (98) %. For the same compound, the results for the half-inhibitory concentration (IC50) in assay [5] (setting [8]) and in assay [6] were 6220 nM and 1320 nM, respectively. In addition, the “Cell LXRβ efficacy” value in assay [6] (setting [8]) was 1325 (91) %.

On to `CCCCN(C)C(=O)c1cnc(N2CCN(c3ccc(F)c(S(C)(=O)=O)c3)C[C@H]2C(C)C)nc1C(F)(F)F` [17-10, (R)-N-butyl-2-(4-(4-fluoro-3-(methylsulfonyl)phenyl)-2-isopropylpiperazin-1-yl)-N-methyl-4-(trifluoromethyl)pyrimidine-5-carboxamide], for which the results for the Ki in assay [1] and in assay [2] were 558 nM and 65 nM, respectively. Moreover, the EC50 in assay [3] (agonist mode) and in assay [4] was above 20000 nM throughout. Besides, the “Cell LXRα efficacy” value in assay [5] is listed as 501 (94) %. Further, the half-maximal inhibitory concentration (IC50) came to 501 nM in assay [5] (setting [8]) and 100 nM in assay [6]. Moreover, the “Cell LXRβ efficacy” value in assay [6] (setting [8]) is 100 (89) %.

Consider `CC(C)[C@@H]1CN(c2ccc(F)c(S(C)(=O)=O)c2)CCN1c1ncc(C(=O)N(C)CCCO)c(C(F)(F)F)n1` [17-11, (R)-2-(4-(4-fluoro-3-(methylsulfonyl)phenyl)-2-isopropylpiperazin-1-yl)-N-(3-hydroxypropyl)-N-methyl-4-(trifluoromethyl)pyrimidine-5-carboxamide], for which the Ki in assay [1] stood at 4880 nM; in assay [2], 548 nM. Moreover, the EC50 in assay [3] (agonist mode) and in assay [4] was above 20000 nM in each case. The half-maximal inhibitory concentration (IC50) in assay [5] (setting [8]) was 3460 nM; in assay [6] it was 875 nM. In addition, the “Cell LXRβ efficacy” value in assay [6] (setting [8]) is listed as 875 (90) %.

On to `CCOC(=O)CCN(C)C(=O)c1cnc(N2CCN(c3ccc(F)c(S(C)(=O)=O)c3)C[C@H]2C(C)C)nc1C(F)(F)F` [17-18, ethyl (R)-3-(2-(4-(4-fluoro-3-(methylsulfonyl)phenyl)-2-isopropylpiperazin-1-yl)-N-methyl-4-(trifluoromethyl)pyrimidine-5-carboxamido)propanoate], for which the inhibition constant Ki in assay [2] amounted to 129 nM. The EC50 in assay [3] (agonist mode) and in assay [4] was above 20000 nM in each case. Also, the “Cell LXRα efficacy” value in assay [5] is listed as 1159 (92) %. Besides, the IC50 in assay [5] (setting [8]) stood at 1160 nM; in assay [6] it was 186 nM. Besides, in assay [6], the “Cell LXRβ efficacy” value is 186 (98) %.

Consider `CC(C)[C@@H]1CN(c2ccc(F)c(S(C)(=O)=O)c2)CCN1c1ncc(CN2CCOCC2)c(C(F)(F)F)n1` [Cpd No 15-5, (R)-4-((2-(4-(4-fluoro-3-(methylsulfonyl)phenyl)-2-isopropylpiperazin-1-yl)-4-(trifluoromethyl)pyrimidin-5-yl)methyl)morpholine], for which, in assay [2], the inhibition constant Ki is 36 nM. For the same compound, the “Cell LXRα efficacy” value in assay [3] is listed as 2592 (12) %. In addition, the EC50 in assay [3] (agonist mode) amounted to 2590 nM; in assay [4], 36 nM. The “Cell LXRβ efficacy” value is 36 (3) % in assay [4] (agonist mode) and 221 (105) % in assay [6] (setting [8]). For the same compound, the IC50 in assay [5] (setting [8]) was determined as 1160 nM; in assay [6], 221 nM.
